In patent publication US8530404B2, “Compounds and methods for treatment of cancer” (FibroGen, Inc., priority 2005, dated 2013):

Assays:
[1] = system: H460 tumor cells; assay: Subcutaneous H460 lung tumor xenograft, tumor growth delay study in combination with chemotherapeutics (Example 6); assay type: in vivo, mouse; conditions: Cmpd A 60 mg/kg p.o., paclitaxel 15 mg/kg i.v., carboplatin 120 mg/kg i.p.
Description: This study was used to determine the effect of combined treatments where compounds and methods of the invention were combined with conventional anti-tumor therapies. These experiments were performed essentially as described above in Example 3, except that 1×10^7 H460 tumor cells were implanted subcutaneously to the flanks of female Harlan nude animals. The number of animals in each group was 10. Treatments were initiated when tumors reached an average size of approximately 100 mm^3.
The study design was representative of tumor progression studies of the TGD (Tumor Growth Delay) type, using a protocol that required individual animals to be humanely euthanized after reaching a set endpoint of tumor volume greater than or equal to 2 cc.
These two chemotherapeutic agents are of two broad classes of conventional anti-tumor therapeutics: microtubule poisons (paclitaxcel); and DNA-directed agents, including the sub-classification of DNA alkylating agents (carboplatin). In tumor-bearing human patients, conventional anti-tumor therapy commonly use of one or both classes of chemotherapeutic agents.
The study was initiated with administration of conventional anti-tumor treatment or vehicle control, and followed one day after with administration of Compound A or vehicle control. […] (See Table 11 and Table 12 for compound and chemotherapeutic agent dosing schedule.)
Tumor progression was determined for each treatment group and is presented as median Time-to-Endpoint (TTE).

[2] = system: MDA-MB-435-GFP breast tumors; assay: Orthotopically implanted human MDA-MB-435-GFP breast tumor mouse xenograft (Example 5); assay type: in vivo; conditions: 33 days of treatment; FIG. 1; dose not stated
Description: The experiment was conducted essentially as described above in Example 3, except that the tumors of GFP-transfected H-460 cells were replaced with MDA-MB-435-GFP breast tumors, with surgical orthotopic implantation directly into breast tissue of female CD-1 nude animals. The number of animals in each group was increased to 15. […] (See, e.g., Ross et al (2000) Nat Genet 24:227-235 and Ellison et al. Mol Pathol. (2002) 55:294-299.)
In the present MDA-MB-435-GFP breast cancer orthotopic study, administration of compound A was initiated 21 days after tumor fragment implantation to the mammary fat pad of female nude mice, at time at which the volume of primary tumors reached ˜150 mm^3. Taxotere, a positive chemotherapeutic agent control, was administered i.v. once weekly (15 mg/kg). After mean tumor volume in the vehicle control group exceeded 1 cm^3, animals were sacrificed (33 days of treatment) and primary tumors were excised from all animals and weighed.

[3] = system: REDD1/RTP801 gene expression; assay: REDD1/RTP801 gene expression in Kelly neuroblastoma cells; assay type: cell-based; conditions: 20 μM, vs DMSO control
Description: To identify compounds useful in the methods of the present invention, the following studies were performed. The effect of compounds of the present invention on expression of various genes associated with anti-tumor activity (e.g., genes having anti-proliferative activity, genes having pro-apoptotic activity, genes having anti-tumor activity, etc.). In these experiments, the effect of compounds on BNIP3, BNIP3L, NDRG1, CDKN1C, and REDD1/RTP801 gene expression in various types of cultured tumor cells line was examined, including Hep3B cells (human hepatocellular carcinoma), Kelly neuroblastoma cells, and MCF7 cells (human breast cancer)
The effects of various compounds of the present invention on the expression of genes associated with tumor growth and progression were examined in Kelly neuroblastoma cells as follows. Kelly neuroblastoma cells were grown in RPMI media. […]
RNA was isolated from the Kelly neuroblastoma cells using a commercial kit and used for the preparation of cDNA. BNIP3, CDKN1C, and 18S RNA levels were measured using commercial kits (18S, Applied Biosystems cat#4319413E); BNIP3, Applied Biosystems cat#HS00969293 MH). […] Kelly cell NDRG1 and BNIP3L mRNA levels were measured by Affymetrix microarray in a separate study. […]

In the case of O=C(O)CNC(=O)c1nc(Cl)c2ccccc2c1O [Compound A, [(1-Chloro-4-hydroxy-isoquinoline-3-carbonyl)-amino]-acetic acid], the “% TGD, Percent Tumor Growth Delay (vs. Group control)” value [1] is reported as 9%, the “T-C (Test-control, difference of medians)” value [1] is reported as 1.5 days and the “% TGD, Percent Tumor Growth Delay (vs. Group control)” value ([1]; listed as Cmpd. A) is reported as 9%. The “Median TTE (Time-to-Endpoint, tumor volume >= 2 cc)” value ([1]; vehicle group 16.2) was 17.7 days and the “reduction of mean tumor volumes compared to vehicle control” value [2] was “approximately 20%”.
For COc1ccc(Oc2ccc3c(O)c(C(=O)NCC(=O)O)ncc3c2)cc1 [Compound C, {[4-Hydroxy-7-(4-methoxy-phenoxy)-isoquinoline-3-carbonyl]-amino}-acetic acid], the “fold-increase in REDD1/RTP801 mRNA expression” value [3] was 3.6 fold.
